Source: PMC7481482, “Development of Anthraquinone Derivatives as Ectonucleoside Triphosphate Diphosphohydrolase (NTPDase) Inhibitors With Selectivity for NTPDase2 and NTPDase3” (Frontiers in Pharmacology, 2020)

Assays:
human NTPDase1 = target: T1, human NTPDase1 (Homo sapiens, UniProt P49961); assay: Malachite green assay, human NTPDase1; type: biochemical; conditions: 2 μM compound; 50 µM ATP; COS-7 membrane preparation; read-out: % inhibition at 2 μM concentration, NTPDase1
T1 construct: expressed in transfected cells; host or cells: COS-7 cells (membrane preparation)
T1 sequence (P49961 1-510): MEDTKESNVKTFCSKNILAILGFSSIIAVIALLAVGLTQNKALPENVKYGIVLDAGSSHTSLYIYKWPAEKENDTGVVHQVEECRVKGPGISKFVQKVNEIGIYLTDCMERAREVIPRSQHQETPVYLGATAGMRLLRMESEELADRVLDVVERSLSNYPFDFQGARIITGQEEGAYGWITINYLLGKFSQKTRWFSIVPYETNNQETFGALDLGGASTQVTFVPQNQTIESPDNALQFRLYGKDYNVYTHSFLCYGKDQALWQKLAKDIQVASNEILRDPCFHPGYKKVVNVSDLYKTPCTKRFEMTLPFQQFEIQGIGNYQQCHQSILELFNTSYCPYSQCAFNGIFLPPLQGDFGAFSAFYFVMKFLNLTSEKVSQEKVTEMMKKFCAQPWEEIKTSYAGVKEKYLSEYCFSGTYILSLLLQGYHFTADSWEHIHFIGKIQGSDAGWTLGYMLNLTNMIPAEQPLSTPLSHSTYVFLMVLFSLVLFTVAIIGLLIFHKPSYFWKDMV
How it was run: (§1)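 COS-7 membranes expressing each NTPDase were preincubated with compound for 5 min at 37 °C, pH 7.4 HEPES buffer with 2 mM CaCl2/1 mM MgCl2. ATP was 50 µM for NTPDase1 and 100 µM for -2, -3, -8; reaction ran 15 min at 37 °C. Released phosphate read by malachite green at 600 nm; screen at 2 µM, IC50 over 0.03–30 µM in 2% DMSO.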

human NTPDase8 = target: T2, human NTPDase8 (Homo sapiens, UniProt Q5MY95); assay: Malachite green assay, human NTPDase8; type: biochemical; conditions: 2 μM compound; 100 µM ATP; COS-7 membrane preparation; read-out: % inhibition at 2 μM concentration, NTPDase8
T2 construct: expressed in transfected cells; host or cells: COS-7 cells (membrane preparation)
T2 sequence (Q5MY95 1-495): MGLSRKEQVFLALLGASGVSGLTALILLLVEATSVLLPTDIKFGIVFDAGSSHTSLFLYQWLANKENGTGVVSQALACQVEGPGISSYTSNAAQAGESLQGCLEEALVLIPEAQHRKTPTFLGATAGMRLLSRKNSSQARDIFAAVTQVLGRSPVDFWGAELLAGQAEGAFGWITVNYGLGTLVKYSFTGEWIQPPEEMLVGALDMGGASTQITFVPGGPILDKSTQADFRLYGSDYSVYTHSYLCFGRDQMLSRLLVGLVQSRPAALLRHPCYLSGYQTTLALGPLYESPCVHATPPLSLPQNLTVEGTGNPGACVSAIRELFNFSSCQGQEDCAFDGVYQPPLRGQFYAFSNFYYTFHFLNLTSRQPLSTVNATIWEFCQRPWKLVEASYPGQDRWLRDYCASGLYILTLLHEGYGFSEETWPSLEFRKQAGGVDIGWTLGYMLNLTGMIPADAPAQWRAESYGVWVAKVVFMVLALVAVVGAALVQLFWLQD
How it was run: as §1

rat CD73 = system: rat CD73; design: method as in Baqi et al., 2010; conditions: ref Baqi et al., 2010; cited from earlier work
rat NTPDase1 = conditions: rat enzyme; ref Baqi et al., 2009b; cited from earlier work

Question: Which inhibition at 2 µM (human NTPDase1) does the source give for `Nc1c(S(=O)(=O)O)cc(Nc2cccc3ccccc23)c2c1C(=O)c1ccccc1C2=O` [Compound 15] here?
Answer: -19%

Question: And the inhibition at 2 µM (human NTPDase8)?
Answer: 9%

Question: What about the IC50 (rat CD73) of the same compound?
Answer: 0.53 µM

Question: What about the IC50 (rat NTPDase1) of the same compound?
Answer: > 100 µM
